# From article PMC5681660, “Reduced hepatitis B and D viral entry using clinically applied drugs as novel inhibitors of the bile acid transporter NTCP” (Scientific Reports, 2017)
# Where a name gives a salt, the structure may show the parent alone. Read-outs that look alike come from different tables or passages of the source.
# How the values were obtained:
# [1] = target: T1, human NTCP (Homo sapiens, UniProt Q14973); assay: Screening fluorescent competitive Myrcludex B-FITC binding assay (96-well, 10 µM drug)
# T1 sequence (Q14973 1-349): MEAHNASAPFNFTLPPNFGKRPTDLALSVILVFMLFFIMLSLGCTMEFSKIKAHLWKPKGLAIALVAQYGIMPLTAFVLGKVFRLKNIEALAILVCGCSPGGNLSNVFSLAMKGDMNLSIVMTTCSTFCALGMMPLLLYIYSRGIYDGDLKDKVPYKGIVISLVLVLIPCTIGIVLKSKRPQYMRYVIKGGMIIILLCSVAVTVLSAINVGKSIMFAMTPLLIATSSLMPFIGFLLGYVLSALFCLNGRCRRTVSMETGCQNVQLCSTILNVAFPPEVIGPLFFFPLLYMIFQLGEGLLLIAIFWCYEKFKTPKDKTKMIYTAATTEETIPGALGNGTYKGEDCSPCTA
# [2] = target: T1, human NTCP; assay: Screening taurocholate uptake assay (96-well, [14C]taurocholate, 10 µM drug)
# [3] = Prestwick library screen, Myrcludex B-FITC binding, 10 µM drug
# [4] = Prestwick library screen, taurocholate uptake, 10 µM drug
# [5] = ranking score beside the functional and binding assay B-scores of the screen
# [6] = screen, 10 µM drug, Myrcludex B-FITC binding
# [7] = combined ranking from functional and binding screening assays
# [8] = screen, 10 µM drug, taurocholate uptake
# [9] = Prestwick library screen, 10 µM drug, B-score of Myrcludex B-FITC binding
# [10] = Prestwick library screen, 10 µM drug, B-score of taurocholate uptake
# [11] = combined ranking from functional and binding assay B-scores
compound,measurement,setting,value
Cc1ccc(-c2cc(C(F)(F)F)nn2-c2ccc(S(N)(=O)=O)cc2)cc1 [Celecoxib],B-score binding assay,[1]; [3],0.033
same,B-score functional assay,[2]; [4],0.148
same,Ranking score,[2]; [5],728.485
CC(=O)Nc1c(I)c(NC(C)=O)c(I)c(C(=O)O)c1I.O.O [Diatrizoic acid dihydrate],B-score binding assay,[1]; [3],1.833
same,B-score functional assay,[2]; [4],-0.248
same,Ranking score,[2]; [5],739.319
Cc1ccc(C)c(OCCCC(C)(C)C(=O)O)c1 [Gemfibrozil],B-score binding assay,[1]; [6],-2.286
same,Ranking score,[2]; [7],289.348
same,B-score functional assay,[2]; [8],0.85
CCOC(=O)C1=C[C@]2(CC)CCCN3CCc4c(n1c1ccccc41)[C@@H]32 [Vinpocetine],B-score binding assay,[1]; [6],-1.57
same,Ranking score,[2]; [7],428.448
same,B-score functional assay,[2]; [8],2.672
CO[C@@]1(NC(=O)Cc2cccs2)C(=O)N2C(C(=O)O)=C(COC(N)=O)CS[C@@H]21 [Cefoxitin sodium salt],B-score binding assay,[1]; [9],0.041
same,B-score functional assay,[2]; [10],1.114
same,Ranking score,[2]; [11],868.493
Cc1c(N(C)CS(=O)(=O)[O-])c(=O)n(-c2ccccc2)n1C.[Na+] [Dipyrone],B-score binding assay,[1]; [6],-0.963
same,Ranking score,[2]; [7],355.307
same,B-score functional assay,[2]; [8],-0.152
CO/N=C(\C(=O)N[C@@H]1C(=O)N2C(C(=O)O)=C(COC(N)=O)CS[C@H]12)c1ccco1 [Cefuroxime sodium salt],B-score binding assay,[1]; [3],-0.123
same,B-score functional assay,[2]; [4],0.233
same,Ranking score,[2]; [5],660.887
O=C(O)COCCN1CCN(C(c2ccccc2)c2ccc(Cl)cc2)CC1 (centres unmarked) [Cetirizine dihydrochloride],B-score binding assay,[1]; [3],0.001
same,B-score functional assay,[2]; [4],0.907
same,Ranking score,[2]; [5],820.204
CC(=O)S[C@@H]1CC2=CC(=O)CC[C@]2(C)[C@H]2CC[C@@]3(C)[C@@H](CC[C@@]34CCC(=O)O4)[C@H]12 [Spironolactone],B-score binding assay,[1]; [3],0.972
same,B-score functional assay,[2]; [4],-0.089
same,Ranking score,[2]; [5],751.977
COc1cccc2c1C(=O)c1c(O)c3c(c(O)c1C2=O)C[C@@](O)(C(=O)CO)C[C@@H]3O[C@H]1C[C@H](N)[C@@H](O)[C@H](C)O1 [Epirubicin hydrochloride],B-score binding assay,[1],1.555
same,B-score functional assay,[2],0.079
same,Ranking score,[2],915.844
Nc1ncn([C@@H]2O[C@H](CO)[C@@H](O)[C@H]2O)c(=O)n1 [Azacytidine-5],B-score binding assay,[1]; [9],1.257
same,B-score functional assay,[2]; [10],0.011
same,Ranking score,[2]; [11],847.665
O=C(CCCN1CCC(n2c(O)nc3ccccc32)CC1)c1ccc(F)cc1 [Benperidol],B-score binding assay,[1]; [6],-1.201
same,Ranking score,[2]; [7],422.659
same,B-score functional assay,[2]; [8],0.351
CC[C@@H](CO)NC(=O)[C@@H]1C=C2c3cccc4[nH]cc(c34)C[C@H]2N(C)C1 [Methylergometrine maleate],B-score binding assay,[1]; [9],0.851
same,B-score functional assay,[2]; [10],0.963
same,Ranking score,[2]; [11],1029.08
CC(=O)Oc1cc(C(F)(F)F)ccc1C(=O)O [Triflusal],B-score binding assay,[1]; [6],-0.002
same,Ranking score,[2]; [7],440.15
same,B-score functional assay,[2]; [8],-0.747
N=C(N)NC(=O)c1nc(Cl)c(N)nc1N [Amiloride hydrochloride dihydrate],B-score binding assay,[1]; [6],1.12
same,Ranking score,[2]; [7],420.464
same,B-score functional assay,[2]; [8],-1.628
CC(Cc1ccc(O)cc1)NCC(O)c1cc(O)cc(O)c1 (centres unmarked) [Fenoterol hydrobromide],B-score binding assay,[1]; [6],-1.328
same,Ranking score,[2]; [7],457.393
same,B-score functional assay,[2]; [8],1.4
OC[C@H]1O[C@@H](Oc2ccc(O)cc2)[C@H](O)[C@@H](O)[C@@H]1O [Arbutin],B-score binding assay,[1]; [9],0.372
same,B-score functional assay,[2]; [10],0.864
same,Ranking score,[2]; [11],944.447
O=C(O)COC(=O)Cc1ccccc1Nc1c(Cl)cccc1Cl [Aceclofenac],B-score binding assay,[1]; [6],-0.456
same,Ranking score,[2]; [7],377.221
same,B-score functional assay,[2]; [8],-0.535
CN(C)CC/C=C1/c2ccccc2COc2ccc(CC(=O)O)cc21 [Olopatadine hydrochloride],B-score binding assay,[1]; [9],0.808
same,B-score functional assay,[2]; [10],1.227
same,Ranking score,[2]; [11],1048.28
COc1ccc([C@@H]2Sc3ccccc3N(CCN(C)C)C(=O)[C@@H]2OC(C)=O)cc1 [Diltiazem hydrochloride],B-score binding assay,[1]; [6],-0.608
same,Ranking score,[2]; [7],351.949
same,B-score functional assay,[2]; [8],-0.552
Cc1ccc(N(CC2=NCCN2)c2cccc(O)c2)cc1 [Phentolamine hydrochloride],B-score binding assay,[1]; [3],1.392
same,B-score functional assay,[2]; [4],-0.082
same,Ranking score,[2]; [5],785.945
(-) -Levobunolol hydrochloride,B-score binding assay,[1]; [9],1.256
same,B-score functional assay,[2]; [10],0.733
same,Ranking score,[2]; [11],1039.8
CC12CC3CC(C)(C1)CC(N)(C3)C2 [Memantine Hydrochloride],B-score binding assay,[1]; [3],-0.02
same,B-score functional assay,[2]; [4],1.46
same,Ranking score,[2]; [5],837.42
CSc1ccc2c(c1)C(N1CCN(C)CC1)Cc1ccccc1S2.O=C(O)/C=C\C(=O)O (centres unmarked) [Methiothepin maleate],B-score binding assay,[1]; [6],-1.545
same,Ranking score,[2]; [7],441.5
same,B-score functional assay,[2]; [8],4.841
Cc1nccn1CC1CCc2c(c3ccccc3n2C)C1=O.Cl (centres unmarked) [Ondansetron Hydrochloride],B-score binding assay,[1]; [3],0
same,B-score functional assay,[2]; [4],0.043
same,Ranking score,[2]; [5],666.933
CC(C)C(=O)c1c(C(C)C)nn2ccccc12 [Ibudilast],B-score binding assay,[1]; [9],0.677
same,B-score functional assay,[2]; [10],0.276
same,Ranking score,[2]; [11],895.497
CN[C@@H]1[C@@H](O[C@H]2O[C@H](CO)[C@@H](N)[C@H](O)[C@H]2O)OC2C[C@@H](N)[C@@H](O[C@H]3[C@H](O)[C@@H](O)[C@H](N)C[C@@H]3N)OC2[C@@H]1O (some centres unmarked) [Apramycin],B-score binding assay,[1]; [6],-0.447
same,Ranking score,[2]; [7],397.98
same,B-score functional assay,[2]; [8],-0.431
C[C@H](CS)C(=O)N1CCC[C@H]1C(=O)O [Captopril],B-score binding assay,[1]; [3],0.648
same,Ranking score,[2]; [5],728.08
Cn1c(=O)c2c(ncn2CC2OCCO2)n(C)c1=O [Doxofylline],B-score binding assay,[1]; [9],0.388
same,B-score functional assay,[2]; [10],3.316
same,Ranking score,[2]; [11],1049.35
COc1ccc(CN(CCN(C)C)c2ccccn2)cc1 [Pyrilamine maleate],B-score binding assay,[1]; [6],0.121
same,Ranking score,[2]; [7],458.048
same,B-score functional assay,[2]; [8],-0.86
N[C@@H]1CON=C1O [D-cycloserine],B-score binding assay,[1]; [3],0.464
same,B-score functional assay,[2]; [4],-0.174
same,Ranking score,[2]; [5],667.017
"CCN(CC)CCOc1ccc(C(=C(Cl)c2ccccc2)c2ccccc2)cc1.O=C(O)CC(O)(CC(=O)O)C(=O)O [Clomiphene citrate (Z,E)]",B-score binding assay,[1]; [3],-0.291
same,B-score functional assay,[2]; [4],0.862
same,Ranking score,[2]; [5],678.964
C[C@]12Cc3c[nH]nc3C[C@@H]1CC[C@@H]1[C@@H]2CC[C@@]2(C)[C@H]1CC[C@]2(C)O [Stanozolol],B-score binding assay,[1],-2.248
same,B-score functional assay,[2],-1.951
same,Ranking score,[2],107.121
Cc1cc(=O)oc2cc(O)ccc12 [Hymecromone],B-score binding assay,[1]; [6],0.036
same,Ranking score,[2]; [7],448.437
same,B-score functional assay,[2]; [8],-0.811
S=c1[nH]cnc2nc[nH]c12 [Mercaptopurine],B-score binding assay,[1]; [6],-0.534
same,Ranking score,[2]; [7],451.727
same,B-score functional assay,[2]; [8],-0.084
CCN(CC)CCNC(=O)c1cc(Br)c(N)cc1OC [Bromopride],B-score binding assay,[1]; [9],1.459
same,B-score functional assay,[2]; [10],0.033
same,Ranking score,[2]; [11],880.053
CCCCNc1ccc(C(=O)OCCN(C)C)cc1.Cl [Tetracaïne hydrochloride],B-score binding assay,[1]; [9],2.591
same,B-score functional assay,[2]; [10],0.799
same,Ranking score,[2]; [11],1118.05
